Test: PK after subcutaneous administration of solutions in dogs
Type: in vivo, Beagle dog
Description: Formulations containing the compound of Formula (Ia) were prepared as aqueous solutions or oral formulations and administered subcutaneously to rats, dogs, cynomolgus monkey, and/or rhesus monkey.
A solution of the compound of Formula (Ia) in 10% ethanol, 13% water, and 77% PEG 200 (400 mg/mL) was prepared. The solution was administered subcutaneously to dogs at a dose of 12 mg/kg and rats at a dose of 50 mg/kg and the pharmacokinetic (PK) profile was determined. […] In both species, plasma concentrations of the compound of Formula (Ia) were maintained above the target trough concentration of 20 nM (corresponding to an IQ of 5) for at least 84 days (12 weeks).
A solution of the compound of Formula (Ia) in 15% water and 85.0 PEG 300 (400 mg/mL) was prepared. The solution was administered subcutaneously to male beagle dogs at a dose level of 12 mg/kg and dose volume of […] and the pharmacokinetic (PK) profile was determined.
A solution of the compound of Formula (a) sodium salt in water and 300 (300 mg/mL) was prepared that contained 22.6% water/50% PEG 300/1.1% NaOH/26.3% Formula (Ia). The solution was administered subcutaneously to male beagle dogs at a dose level of 12 mg/kg and dose volume of […] and the pharmacokinetic (PK) profile was determined.
A 300 mg/ml solution of a compound of Formula (Ia) having 9.8 w/w % water, 65.0 w/w % PEG 300, and 25.2 w/w % of the compound of Formula (Ia) was prepared. The solution was administered subcutaneously to rats at a dose of 50 mg/kg and to dogs at a dose of 12 mg/kg and the pharmacokinetic (PK) profile was determined. […] In the rat, plasma concentrations of the compound of Formula (Ia) were maintained above the target trough concentration of 20 nM for at least 168 days (24 weeks). In the dog, plasma concentrations of the compound of Formula (Ia) were maintained above the target trough concentration of 20 nM for at least 84 days (12 weeks).
(§1) A 150 mg/ml solution of a compound of Formula (Ia) having 27.92 w/w % water, 58.04 w/w % PEG 300, 13.47 w/w % of a compound of Formula (Ia), and 1.1 w/w % NaOH was prepared. The solution was administered subcutaneously to rats at a dose of 50 mg/kg and to dogs at a dose of 12 mg/kg and the pharmacokinetic (PK) profile was determined. […] In the rat, plasma concentrations of the compound of Formula (Ia) were maintained above the target trough concentration of 20 nM for at least 126 days (18 weeks). In the dog, plasma concentrations of the compound of Formula (Ia) were maintained above the target trough concentration of 20 nM for at least 56 days (8 weeks).
as §1, with “300” for “150”, “23.2” for “27.92”, “50.0” for “58.04”, “25.7” for “13.47”
A 50 mg/ml solution of a compound of Formula (Ia) having 30.07 w/w % water, 64.40 w/w % PEG 300, 4.68 w/w % of a sodium salt of the compound of Formula (Ia), and 0.85 w/w % poloxamer 188 was prepared. The solution was administered subcutaneously to rats at a dose of 50 mg/kg and to dogs at a dose of 6 mg/kg and the pharmacokinetic (PK) profile was determined. […] In the rat, plasma concentrations of the compound of Formula (Ia) were maintained above the target trough concentration of 20 nM for at least 28 days (4 weeks). In the dog, plasma concentrations of the compound of Formula (Ia) were maintained above the target trough concentration of 20 nM for at least 14 days (2 weeks). […]

[1] = beagle, dog, plasma, sc, 12 mg/kg, SC 12 mg/kg, 400 mg/mL solution in 10% ethanol, 13% water, 77% PEG 200, mean ± SD, n=3
[2] = dog, SC 12 mg/kg, 150 mg/mL solution (w/w %: 27.92 water, 58.04 PEG 300, 13.47 Formula (Ia), 1.1 NaOH), mean ± SD, n=3

With `CC(C)(C#Cc1ccc(-c2ccc(Cl)c3c(NS(C)(=O)=O)nn(CC(F)(F)F)c23)c([C@H](Cc2cc(F)cc(F)c2)NC(=O)Cn2nc(C(F)(F)F)c3c2C(F)(F)[C@@H]2C[C@H]32)n1)S(C)(=O)=O` [Formula (Ia), N—((S)-1-(3-(4-chloro-3-(methylsulfonamido)-1-(2,2,2-trifluoroethyl)-1H-indazol-7-yl)-6-(3-methyl-3-(methylsulfonyl)but-1-yn-1-yl)pyridin-2-yl)-2-(3,5-difluorophenyl)ethyl)-2-((3bS,4aR)-5,5-difluoro-3-(trifluoromethyl)-3b,4,4a,5-tetrahydro-1H-cyclopropa[3,4]cyclopenta[1,2-c]pyrazol-1-yl)acetamide] the AUC(0-t) (beagle, dog, plasma, sc, 12 mg/kg, dog, SC 12 mg/kg, 400 mg/mL solution in 10% ethanol, 13% water, 77% PEG 200, mean ± SD, n=3, read-out: AUC0-140d) was 111 ± 14 µM·h, the concentration at 84 d (beagle, dog, plasma, sc, 12 mg/kg, dog, SC 12 mg/kg, 400 mg/mL solution in 10% ethanol, 13% water, 77% PEG 200, mean ± SD, n=3, read-out: C84d) was 23.4 ± 5.7 nM and the Cmax [1] was 107 ± 13 nM. The Tmax [1] was 14 days, the Plasma concentration (dog #1, 0 h, SC 12 mg/kg, 400 mg/mL in 15% water/85% PEG 300) was “BLQ” and the Plasma concentration (dog #1, 1.0 h, SC 12 mg/kg, 400 mg/mL in 15% water/85% PEG 300) was “BLQ”. The Plasma concentration (dog #2, 0 h, SC 12 mg/kg, 400 mg/mL in 15% water/85% PEG 300) was “BLQ”, the Plasma concentration (dog #3, 0 h, SC 12 mg/kg, 400 mg/mL in 15% water/85% PEG 300) was “BLQ” and the “Time plasma concentrations maintained above the target trough concentration of 20 nM” value (dog, SC 6 mg/kg, 50 mg/mL solution (w/w %: 30.07 water, 64.40 PEG 300, 4.68 sodium salt of Formula (Ia), 0.85 poloxamer 188)) was “at least 14 days”. For the same compound, the “Time plasma concentrations maintained above the target trough concentration of 20 nM” value (dog, SC 6 mg/kg, 75 mg/mL solution (w/w %: 29.21 water, 62.55 PEG 300, 6.97 sodium salt of Formula (Ia), 1.68 poloxamer 188)) was “at least 21 days”, the “Time plasma concentrations maintained above the target trough concentration of 20 nM” value (dog, SC 6 mg/kg, 100 mg/mL solution (w/w %: 28.36 water, 60.73 PEG 300, 9.23 sodium salt of Formula (Ia), 1.68 poloxamer 188)) was “at least 14 days” and the AUC0-14d (dog, SC 6 mg/kg, 100 mg/mL solution (w/w %: 28.36 water, 60.73 PEG 300, 9.23 sodium salt of Formula (Ia), 1.68 poloxamer 188), mean ± SD, n=3) was 104 ± 26 µM·h. For the same compound, the “Time plasma concentrations maintained above the target trough concentration of 20 nM” value (dog, SC 6 mg/kg, 125 mg/mL solution (w/w %: 27.51 water, 58.92 PEG 300, 11.48 sodium salt of Formula (Ia), 2.09 poloxamer 188)) was “at least 14 days”, the “Time plasma concentrations maintained above the target trough concentration of 20 nM” value (dog, SC 6 mg/kg, 150 mg/mL solution (w/w %: 26.6 water, 56.97 PEG 300, 13.39 Formula (Ia), 0.57 NaOH, 2.49 poloxamer 188)) was “at least 56 days” and the “Time plasma concentrations maintained above the target trough concentration of 20 nM” value (dog, SC 6 mg/kg, 300 mg/mL solution (w/w %: 21.97 water, 47.05 PEG 300, 25.21 Formula (Ia), 1.08 NaOH, 4.69 poloxamer 188)) was “at least 56 days”. The AUC0-84d (dog, SC 6 mg/kg, 300 mg/mL solution (w/w %: 21.97 water, 47.05 PEG 300, 25.21 Formula (Ia), 1.08 NaOH, 4.69 poloxamer 188), mean ± SD, n=3) was 65.4 ± 21.5 µM·h, the “Time plasma concentrations maintained above the target trough concentration of 20 nM” value (dog, SC 12 mg/kg, 150 mg/mL solution (w/w %: 27.92 water, 58.04 PEG 300, 13.47 Formula (Ia), 1.1 NaOH)) was “at least 56 days” and the AUC0-28d [2] was 137.0 ± 38 µM·h. For the same compound, the AUC0-126d [2] was 196 ± 31 µM·h, the “Time plasma concentrations maintained above the target trough concentration of 20 nM” value (dog, SC 12 mg/kg, 300 mg/mL solution (w/w %: 9.8 water, 65.0 PEG 300, 25.2 Formula (Ia))) was “at least 84 days” and the “Time plasma concentrations maintained above the target trough concentration of 20 nM” value (dog, SC 12 mg/kg, 300 mg/mL solution (w/w %: 23.2 water, 50.0 PEG 300, 25.7 Formula (Ia), 1.1 NaOH)) was “at least 56 days”. The “Time plasma concentrations maintained above the target trough concentration of 20 nM” value (dog, SC 12 mg/kg, 400 mg/mL solution in 10% ethanol, 13% water, 77% PEG 200) was “at least 84 days”, the concentration at 3 h (male, beagle, dog, plasma, sc, 12 mg/kg, dog #1, 3.0 h, SC 12 mg/kg, 400 mg/mL in 15% water/85% PEG 300) was 1.2 nM and the concentration at 8 h (male, beagle, dog, plasma, sc, 12 mg/kg, dog #1, 8.0 h, SC 12 mg/kg, 400 mg/mL in 15% water/85% PEG 300) was 10.6 nM. The concentration at 24 h (male, beagle, dog, plasma, sc, 12 mg/kg, dog #1, 24.0 h, SC 12 mg/kg, 400 mg/mL in 15% water/85% PEG 300) was 19.8 nM, the concentration at 48 h (male, beagle, dog, plasma, sc, 12 mg/kg, dog #1, 48.0 h, SC 12 mg/kg, 400 mg/mL in 15% water/85% PEG 300) was 54.6 nM and the concentration at 72 h (male, beagle, dog, plasma, sc, 12 mg/kg, dog #1, 72.0 h, SC 12 mg/kg, 400 mg/mL in 15% water/85% PEG 300) was 62.8 nM. It also gave a concentration at 96 h (male, beagle, dog, plasma, sc, 12 mg/kg, dog #1, 96.0 h, SC 12 mg/kg, 400 mg/mL in 15% water/85% PEG 300) of 58.9 nM and a concentration at 168 h (male, beagle, dog, plasma, sc, 12 mg/kg, dog #1, 168 h, SC 12 mg/kg, 400 mg/mL in 15% water/85% PEG 300) of 71.9 nM.

From patent publication US12594267B2, “Capsid inhibitors for the treatment of HIV” (Gilead Sciences, Inc., priority 2018, dated 2026)
